Results as given in PMC10046369, “Low-Affinity/High-Selectivity Dopamine Transport Inhibition Sufficient to Rescue Cognitive Functions in the Aging Rat” (Biomolecules, 2023).

Legend:
Assay in all cases: biochemical
Design in all cases: KINOMEscan competition binding panel, per cent of control
Settings in all cases: read-out: %Ctrl @ 2800nM
ITK = ITK (Homo sapiens, UniProt Q08881)
Outline: (§1)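 Competition binding panel (KINOMEscan) across 450 human kinases and disease-relevant mutants, run to the contractor's standard protocol. Values are % control: (test signal − positive control signal)/(negative control signal − positive control signal) × 100, with lower values indicating stronger binding.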

EGFR(T790M) = EGFR(T790M) (Homo sapiens, UniProt P00533, T790M)
Outline: as §1

LIMK1 = LIMK1 (Homo sapiens, UniProt P53667)
Outline: as §1

MARK3 = MARK3 (Homo sapiens, UniProt P27448)
Outline: as §1

MAPKAPK2 = MAPKAPK2 (Homo sapiens, UniProt P49137)
MAPKAPK2, sequence (P49137 whole entry): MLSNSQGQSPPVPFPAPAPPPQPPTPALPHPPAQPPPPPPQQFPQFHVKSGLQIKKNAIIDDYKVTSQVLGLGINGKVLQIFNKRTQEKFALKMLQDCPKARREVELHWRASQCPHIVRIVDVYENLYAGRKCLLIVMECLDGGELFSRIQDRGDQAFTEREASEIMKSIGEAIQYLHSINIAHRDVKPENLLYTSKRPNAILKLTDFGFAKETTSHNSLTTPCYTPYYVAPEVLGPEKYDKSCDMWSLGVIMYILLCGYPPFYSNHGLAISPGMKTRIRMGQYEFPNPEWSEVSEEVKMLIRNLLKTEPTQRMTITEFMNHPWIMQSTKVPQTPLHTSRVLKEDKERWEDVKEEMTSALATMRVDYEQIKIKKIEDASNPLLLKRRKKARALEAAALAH
Outline: as §1

[1] = target: T1, RSK2(Kin.Dom.1-N-terminal) (Homo sapiens, UniProt P51812)
T1 construct: gene RPS6KA3; Kin.Dom.1-N-terminal
Outline: as §1

FAK = target: T2, FAK (Homo sapiens, UniProt Q05397)
T2 construct: gene PTK2
Outline: as §1

EPHB1 = EPHB1 (Homo sapiens, UniProt P54762)
Outline: as §1

SRMS = SRMS (Homo sapiens, UniProt Q9H3Y6)
Outline: as §1

FGFR4 = FGFR4 (Homo sapiens, UniProt P22455)
Outline: as §1

[2] = target: T3, RSK3(Kin.Dom.1-N-terminal) (Homo sapiens, UniProt Q15349)
T3 construct: gene RPS6KA2; Kin.Dom.1-N-terminal
Outline: as §1

CSNK2A2 = CSNK2A2 (Homo sapiens, UniProt P19784)
CSNK2A2, sequence (P19784 whole entry): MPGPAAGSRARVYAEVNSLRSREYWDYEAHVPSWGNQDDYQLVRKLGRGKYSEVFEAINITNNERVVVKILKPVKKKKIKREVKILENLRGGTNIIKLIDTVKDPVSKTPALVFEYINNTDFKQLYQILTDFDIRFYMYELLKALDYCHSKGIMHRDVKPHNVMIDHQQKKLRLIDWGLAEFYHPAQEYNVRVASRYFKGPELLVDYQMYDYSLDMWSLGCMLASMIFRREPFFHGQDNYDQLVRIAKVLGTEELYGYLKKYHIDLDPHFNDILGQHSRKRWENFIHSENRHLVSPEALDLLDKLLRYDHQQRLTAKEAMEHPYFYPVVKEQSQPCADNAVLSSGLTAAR
Outline: as §1

ACVR2B = ACVR2B (Homo sapiens, UniProt Q13705)
Outline: as §1

ROCK2 = ROCK2 (Homo sapiens, UniProt O75116)
Outline: as §1

[3] = target: T4, RSK4(Kin.Dom.2-C-terminal) (Homo sapiens, UniProt Q9UK32)
T4 construct: gene RPS6KA6; Kin.Dom.2-C-terminal
Outline: as §1

ROCK1 = ROCK1 (Homo sapiens, UniProt Q13464)
Outline: as §1

[4] = target: T5, JAK2(JH1domain-catalytic) (Homo sapiens, UniProt O60674)
T5 construct: JH1domain-catalytic
T5 sequence (O60674 whole entry): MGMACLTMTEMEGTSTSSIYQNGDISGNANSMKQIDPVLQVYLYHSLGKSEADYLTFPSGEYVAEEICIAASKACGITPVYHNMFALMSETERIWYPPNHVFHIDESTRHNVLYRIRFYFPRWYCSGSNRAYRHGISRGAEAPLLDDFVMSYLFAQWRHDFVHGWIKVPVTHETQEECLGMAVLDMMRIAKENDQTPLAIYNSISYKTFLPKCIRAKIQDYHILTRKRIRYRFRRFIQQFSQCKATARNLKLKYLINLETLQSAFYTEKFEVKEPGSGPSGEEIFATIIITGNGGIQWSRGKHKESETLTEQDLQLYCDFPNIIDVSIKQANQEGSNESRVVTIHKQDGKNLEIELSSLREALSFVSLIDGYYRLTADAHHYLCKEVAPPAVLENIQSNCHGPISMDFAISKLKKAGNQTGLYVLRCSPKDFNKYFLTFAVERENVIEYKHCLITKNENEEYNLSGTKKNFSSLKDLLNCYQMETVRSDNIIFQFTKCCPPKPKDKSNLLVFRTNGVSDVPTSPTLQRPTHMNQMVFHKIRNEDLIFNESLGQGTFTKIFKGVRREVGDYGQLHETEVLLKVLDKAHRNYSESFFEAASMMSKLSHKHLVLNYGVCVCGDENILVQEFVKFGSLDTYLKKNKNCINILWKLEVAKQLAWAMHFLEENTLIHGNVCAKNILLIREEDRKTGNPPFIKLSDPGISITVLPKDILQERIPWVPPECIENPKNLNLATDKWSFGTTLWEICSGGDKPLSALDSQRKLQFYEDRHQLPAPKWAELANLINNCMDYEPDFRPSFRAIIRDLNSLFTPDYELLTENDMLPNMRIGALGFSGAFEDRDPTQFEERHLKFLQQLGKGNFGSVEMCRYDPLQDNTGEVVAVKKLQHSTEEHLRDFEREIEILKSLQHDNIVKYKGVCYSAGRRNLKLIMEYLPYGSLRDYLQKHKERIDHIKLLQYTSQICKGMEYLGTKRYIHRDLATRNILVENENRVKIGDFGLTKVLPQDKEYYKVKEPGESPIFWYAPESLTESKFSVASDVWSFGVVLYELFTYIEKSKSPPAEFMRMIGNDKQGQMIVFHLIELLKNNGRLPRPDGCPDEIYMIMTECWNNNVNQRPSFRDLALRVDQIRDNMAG
Outline: as §1

NLK = NLK (Homo sapiens, UniProt Q9UBE8)
NLK, sequence (Q9UBE8 whole entry): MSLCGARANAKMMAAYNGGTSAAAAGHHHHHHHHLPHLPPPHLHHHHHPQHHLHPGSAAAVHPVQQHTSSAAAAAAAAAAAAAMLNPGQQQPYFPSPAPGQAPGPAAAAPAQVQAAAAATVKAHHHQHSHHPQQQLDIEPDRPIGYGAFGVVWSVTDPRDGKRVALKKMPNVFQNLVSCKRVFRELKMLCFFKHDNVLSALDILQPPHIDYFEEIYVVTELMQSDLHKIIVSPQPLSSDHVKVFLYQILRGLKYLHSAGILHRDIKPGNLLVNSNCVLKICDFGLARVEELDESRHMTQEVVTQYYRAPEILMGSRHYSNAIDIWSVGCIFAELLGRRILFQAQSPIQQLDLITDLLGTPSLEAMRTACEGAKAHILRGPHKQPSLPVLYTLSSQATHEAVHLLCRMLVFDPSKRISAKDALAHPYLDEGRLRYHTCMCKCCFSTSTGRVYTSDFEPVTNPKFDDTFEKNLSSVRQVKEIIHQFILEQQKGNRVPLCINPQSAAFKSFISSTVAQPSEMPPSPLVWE
Outline: as §1

[5] = target: T6, RPS6KA5(Kin.Dom.1-N-terminal) (Homo sapiens, UniProt O75582)
T6 construct: Kin.Dom.1-N-terminal
Outline: as §1

ASK1 = target: T7, ASK1 (Homo sapiens, UniProt Q99683)
T7 construct: gene MAP3K5
Outline: as §1

CHEK1 = CHEK1 (Homo sapiens, UniProt O14757)
Outline: as §1

PRKCI = PRKCI (Homo sapiens, UniProt P41743)
Outline: as §1

EPHB2 = EPHB2 (Homo sapiens, UniProt P29323)
Outline: as §1

FLT4 = FLT4 (Homo sapiens, UniProt P35916)
FLT4, sequence (P35916 whole entry): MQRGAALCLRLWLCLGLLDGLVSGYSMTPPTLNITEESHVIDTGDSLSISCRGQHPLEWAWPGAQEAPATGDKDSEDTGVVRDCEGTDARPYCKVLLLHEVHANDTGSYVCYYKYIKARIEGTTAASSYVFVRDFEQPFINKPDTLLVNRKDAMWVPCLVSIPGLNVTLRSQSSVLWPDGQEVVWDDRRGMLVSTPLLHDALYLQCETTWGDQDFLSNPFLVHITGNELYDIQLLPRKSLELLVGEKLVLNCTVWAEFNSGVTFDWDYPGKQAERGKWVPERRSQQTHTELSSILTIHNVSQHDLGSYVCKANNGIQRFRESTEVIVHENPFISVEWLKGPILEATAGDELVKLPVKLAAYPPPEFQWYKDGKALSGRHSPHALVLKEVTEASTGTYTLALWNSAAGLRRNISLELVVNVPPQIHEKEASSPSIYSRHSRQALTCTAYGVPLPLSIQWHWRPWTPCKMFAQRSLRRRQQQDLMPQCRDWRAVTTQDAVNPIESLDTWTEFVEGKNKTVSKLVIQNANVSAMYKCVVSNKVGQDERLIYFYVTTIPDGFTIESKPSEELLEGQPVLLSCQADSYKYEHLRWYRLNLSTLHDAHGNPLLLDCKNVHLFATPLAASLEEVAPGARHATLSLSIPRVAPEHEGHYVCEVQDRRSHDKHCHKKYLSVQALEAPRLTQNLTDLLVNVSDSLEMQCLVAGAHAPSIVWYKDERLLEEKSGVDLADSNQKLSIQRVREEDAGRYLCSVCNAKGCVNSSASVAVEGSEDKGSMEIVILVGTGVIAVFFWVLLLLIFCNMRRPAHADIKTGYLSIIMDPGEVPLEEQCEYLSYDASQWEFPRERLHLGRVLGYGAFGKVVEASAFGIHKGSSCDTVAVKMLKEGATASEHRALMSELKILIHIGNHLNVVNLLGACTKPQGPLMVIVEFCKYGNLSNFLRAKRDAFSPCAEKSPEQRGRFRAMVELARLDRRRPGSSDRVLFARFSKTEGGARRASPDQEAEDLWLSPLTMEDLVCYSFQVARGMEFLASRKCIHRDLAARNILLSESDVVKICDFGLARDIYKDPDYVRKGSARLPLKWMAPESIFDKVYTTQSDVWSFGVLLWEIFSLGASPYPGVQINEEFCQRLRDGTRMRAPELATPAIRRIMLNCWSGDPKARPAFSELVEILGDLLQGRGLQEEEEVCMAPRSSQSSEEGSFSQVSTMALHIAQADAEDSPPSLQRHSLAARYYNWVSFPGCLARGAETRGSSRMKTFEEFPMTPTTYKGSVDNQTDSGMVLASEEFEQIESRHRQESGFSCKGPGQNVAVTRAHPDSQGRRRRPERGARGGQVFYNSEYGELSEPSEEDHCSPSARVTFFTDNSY
Outline: as §1

CSNK1G2 = CSNK1G2 (Homo sapiens, UniProt P78368)
CSNK1G2, sequence (P78368 whole entry): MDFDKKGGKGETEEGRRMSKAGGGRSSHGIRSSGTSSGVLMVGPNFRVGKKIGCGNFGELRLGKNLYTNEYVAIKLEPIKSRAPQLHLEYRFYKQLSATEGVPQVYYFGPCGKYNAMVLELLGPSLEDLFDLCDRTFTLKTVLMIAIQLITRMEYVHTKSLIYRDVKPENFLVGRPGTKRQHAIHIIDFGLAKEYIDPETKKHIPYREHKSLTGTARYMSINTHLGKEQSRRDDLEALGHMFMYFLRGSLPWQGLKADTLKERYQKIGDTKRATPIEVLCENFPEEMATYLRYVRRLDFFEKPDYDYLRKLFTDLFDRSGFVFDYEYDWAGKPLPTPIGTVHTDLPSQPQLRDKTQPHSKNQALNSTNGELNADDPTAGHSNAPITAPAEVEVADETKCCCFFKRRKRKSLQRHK
Outline: as §1

ITK, sequence (Q08881 whole entry): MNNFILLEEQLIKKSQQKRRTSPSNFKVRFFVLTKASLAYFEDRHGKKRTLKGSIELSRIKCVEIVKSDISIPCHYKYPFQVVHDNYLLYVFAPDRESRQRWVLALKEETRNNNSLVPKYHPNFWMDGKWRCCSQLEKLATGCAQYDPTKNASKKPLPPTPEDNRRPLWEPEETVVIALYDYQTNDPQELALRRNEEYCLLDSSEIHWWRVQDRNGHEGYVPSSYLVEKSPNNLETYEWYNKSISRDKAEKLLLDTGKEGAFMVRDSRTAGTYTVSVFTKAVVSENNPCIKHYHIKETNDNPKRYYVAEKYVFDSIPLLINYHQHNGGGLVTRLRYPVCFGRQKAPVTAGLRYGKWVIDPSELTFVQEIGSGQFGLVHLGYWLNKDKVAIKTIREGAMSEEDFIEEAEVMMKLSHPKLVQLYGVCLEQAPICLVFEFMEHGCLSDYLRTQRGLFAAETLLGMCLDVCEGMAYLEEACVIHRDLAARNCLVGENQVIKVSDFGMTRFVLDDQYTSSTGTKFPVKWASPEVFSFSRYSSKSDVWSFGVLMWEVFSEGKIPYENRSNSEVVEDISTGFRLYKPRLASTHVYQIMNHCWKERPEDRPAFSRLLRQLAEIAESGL

[O-][S@@+](Cc1cncs1)C(c1ccccc1)c1ccccc1 [S-CE-123, (S)-5-((Benzhydrylsulfinyl)Methyl)Thiazole]
remaining binding at 2.8 µM (ITK): 100% | remaining binding at 2.8 µM (EGFR(T790M)): 98% | remaining binding at 2.8 µM (LIMK1): 98% | remaining binding at 2.8 µM (MARK3): 70% | remaining binding at 2.8 µM (MAPKAPK2): 99% | remaining binding at 2.8 µM [1]: 100% | remaining binding at 2.8 µM (FAK): 100% | remaining binding at 2.8 µM (EPHB1): 100% | remaining binding at 2.8 µM (SRMS): 99% | remaining binding at 2.8 µM (FGFR4): 100% | remaining binding at 2.8 µM [2]: 100% | remaining binding at 2.8 µM (CSNK2A2): 100% | remaining binding at 2.8 µM (ACVR2B): 100% | remaining binding at 2.8 µM (ROCK2): 100% | remaining binding at 2.8 µM [3]: 94% | remaining binding at 2.8 µM (ROCK1): 100% | remaining binding at 2.8 µM [4]: 100% | remaining binding at 2.8 µM (NLK): 97% | remaining binding at 2.8 µM [5]: 100% | remaining binding at 2.8 µM (ASK1): 84% | remaining binding at 2.8 µM (CHEK1): 89% | remaining binding at 2.8 µM (PRKCI): 100% | remaining binding at 2.8 µM (EPHB2): 89% | remaining binding at 2.8 µM (FLT4): 100% | remaining binding at 2.8 µM (CSNK1G2): 94%
